Read-outs that look alike come from different tables or passages of the source.
How the values were obtained:
[1] = Pharmacokinetic study in rats after intragastric administration of Farfarae Flos extract (plasma, LC-MS/MS); format: in vivo; details: for Cmax / Tmax / half-life / MRT last / MRT inf: male; for Cmax: rat, plasma, po; for MRT last: read-out: MRT(0–24h); for MRT inf: read-out: MRT(0–∞)
From the text: A high-performance liquid chromatography instrument was used to separate three types of compounds (Agilent 1200 series, USA). The HPLC instrument is composed of four parts; a G1322A degasser, G1312A Bin Pump, G1367B auto-sampler, and G1316A thermostatic column compartment. Three types of compounds and three internal standards (ISs) were separated on an Eclipse Plus C18 (4.6 × 100 mm, 1.8 μm). The mobile phase was composed of formic acid aqueous solution (A) and formic acid methanol solution (B). The concentration of formic acid in both A and B solution was 0.1% (v/v). The gradient elution was as follows. The proportion of 10% B changes to 40% from 0 min to 3mins. 40% B changes to 90% from 16 to 18 min. B is maintained at 100% from 19 to 28 min. The flow rate, sample injected volume, and column temperature was 0.35 mL·min^−1, 10 μL, and 35°C, respectively.
Quantitative analysis of all samples was performed on Sciex API 3200 with an electrospray ionization (ESI) source. Analyst 1.6.2 workstation for instrument operation, data management, and data analysis were employed to analyze and process data (AB, Sciex). Ten analyzed compounds and three ISs were optimized during multiple reactions monitoring (MRM). […] MRM parameters of CCLA were set at 353.1-191.0. […] MRM parameters of IAB were set as 515.3-353.2 and MRM parameters of IAA were set at 515.2-353.0. MRM parameters of IAC and tussilagone were set as 515.3-352.9, 391.4-217.4, respectively.
Twenty male rats (4 months old, weight 240 ± 20 g) were obtained commercially from Vital River Laboratory Animal Company (Beijing, China). Before the pharmacokinetic experiments, they were free to eat food and drink water for one week for adapting to the environment when the dark light cycle was 12 hours, while the temperature was maintained at 25 ± 5°C. The animal experiments were guided and strictly approved by Tianjin Hospital animal ethics committee. They were fasted for 12 hours and could only drink freely water before intragastric administration of Farfarae Flos extract. Ten rats in each group were employed for eliminating data variation caused by different animal individuals. All rats in groups 1 and group 2 were orally administrated one time at two dosages of Farfarae Flos extract (carboxymethyl cellulose sodium salt (0.5%) was used to suspend the extract to prepare the administration solution 3.90 g·kg^−1 and 7.80 g·kg^−1), respectively. Rats were anesthetized with ether. The heparinized 1.5 mL polythene tube was used to collect bank plasma samples before administering dose of the extract. About 250 μL plasma samples were collected at each collecting points of 5 min, 10 min, 0.25 h, 0.50 h, 0.75 h, 1 h, 2 h, 4 h, 8 h, 12 h, 24 h, and 36 h via fossa orbitalis after dosing. All plasma samples from collecting points need to be centrifuged at 4,000 rpm for ten minutes. The supernatant fluid of centrifuged plasma samples was obtained and immediately stored at −20°C in a refrigerator until they were analyzed.
The maximum concentration (Cmax) and the time to reach the maximum concentration (Tmax) of ten target compounds were directly calculated by the real concentration-time data in the plasma. The data were expressed as mean ± SD.
Ten microliters of ISs solution (contained puerarin, ferulic acid, and artemisinin) and the plasma sample (100 μL) were added into a clean tube, and then acetonitrile (400 μL) was added to precipitate protein. After centrifugation at 14000 rpm for 10 minutes, a mild nitrogen flow was used to evaporate the liquid of the supernatant to dryness. Then, the residue was dissolved in methanol (100 μL). The solution was vortexed for 3 min, mixed for 3 minutes with ultrasound, and centrifuged for 10 min. Finally, the solution (10 μL) was used to detect concentration of ten target compounds in rat plasma.

[2] = Stability of QC samples in rat plasma (24 h, freeze-thaw, 4 weeks); format: in vitro ADME; details: six replicates; for 24 h stability Remain (%): 24 hours at 20°C; for Freeze-thaw stability, percent remaining: freeze-thaw cycles −20°C to 20°C; for Long stability Remain (%): stored at −80°C for 4 weeks
Procedure: Stock solution of 10 analytical compounds (1.00 mg·mL^−1) and three internal standards (ISs) was dissolved in methanol and placed in the refrigerator before testing. Methanol was used to prepare ferulic acid (IS1), puerarin (IS2), and artemisinin (IS3) solutions to reach a concentration of 1 μg mL^−1, respectively. A specific volume of each analyte stock solution is mixed together to prepare the standard working solution containing 10 analytes with a concentration of 10 times at LLOQ and three levels (high, medium, and low). Quality control (QC) samples for methodological validation were prepared to obtain the final concentration by adding standard working solution (10 μL) into blank plasma samples (100 μL).
Four concentration levels of ICB and ICA were 4, 12, 400, and 12000 ng mL^−1, respectively. Four concentration levels of caffeic acid were 10, 30, 1000, and 30000 ng·mL^−1, respectively.
In the stability test, 24-hour stability (The samples were placed for 24 hours at 20°C and then measured), freeze-thaw cycles (The sample was injected after the temperature changing from −20°C to 20°C), and 4 weeks stability (The sample was determined after stored at −80°C for 4 weeks) of representative QC samples were all tested. All of them were assayed with six replicates.

[3] = 3.9 g/kg, oral Farfarae Flos extract 3.9 g·kg^−1, mean ± SD
[4] = 7.8 g/kg, oral Farfarae Flos extract 7.8 g·kg^−1, mean ± SD
[5] = rat plasma, oral Farfarae Flos extract 3.9 g·kg^−1, mean ± SD
[6] = rat plasma, oral Farfarae Flos extract 7.8 g·kg^−1, mean ± SD
[7] = high concentration level (3000-30000 ng·mL^−1)
[8] = low concentration level (3-30 ng·mL^−1)
[9] = medium concentration level (100-1000 ng·mL^−1)

Row | Compound | Cmax [1, 3] [ng/mL] | Cmax [1, 4] [ng/mL] | Tmax [1, 5] [min] | half-life [1, 5] [min] | MRT last [1, 5] [h] | MRT inf [1, 5] [h] | Tmax [1, 6] [min] | half-life [1, 6] [min] | MRT last [1, 6] [h] | MRT inf [1, 6] [h] | AUC(0–24h) [1, 5] [ng/mL ∗ h] | AUC(0–∞) [1, 5] [ng/mL ∗ h] | AUC(0–24h) [1, 6] [ng/mL ∗ h] | AUC(0–∞) [1, 6] [ng/mL ∗ h] | 24 h stability Remain (%) [2, 7] [%] | Freeze-thaw stability, percent remaining [2, 7] [%] | Long stability Remain (%) [2, 7] [%] | Freeze-thaw stability, percent remaining [2, 8] [%] | Long stability Remain (%) [2, 8] [%] | Freeze-thaw stability, percent remaining [2, 9] [%] | also measured
1 | O=C(/C=C/c1ccc(O)c(O)c1)O[C@H]1[C@H](O)C[C@](O)(C(=O)O)C[C@H]1O [CCLA, cryptochlorogenic acid] | 177 ± 131 | > 1000 | 38.4 ± 12 | 61.8 ± 31.8 | 4.17 ± 1.73 | 5.16 ± 2.01 | 23.4 ± 12 | 63.6 ± 34.8 | 5.02 ± 2.07 | 6.23 ± 2.1 | 422.3 ± 210.5 | 585.7 ± 414.0 | 1938 ± 1401 | 2019 ± 1397 | 112 | 93.2 | 95.9 | 96.8 | 97.5 | 82.9 | 24 h stability Remain (%) [2, 8]: 98.4%; 24 h stability Remain (%) [2, 9]: 112%; Long stability Remain (%) [2, 9]: 98.6%
2 | O=C(O)/C=C/c1ccc(O)c(O)c1 [Caffeic acid, caffeic acid] | 96.3 ± 36.6 | 106 ± 24.4 | 13.8 ± 2.4 | 279 ± 293 | 6.47 ± 3.05 | 14.8 ± 8.46 | 12.6 ± 2.4 | 165 ± 163 | 4.81 ± 3.64 | 15.6 ± 10.5 | 338.9 ± 246.4 | 691.7 ± 477.5 | 473.5 ± 273.8 | 723.9 ± 468.5 | 90.7 | 85.5 | 81.1 | 101 | 113 | 87.2 | 24 h stability Remain (%) [2, 8]: 81.1%; 24 h stability Remain (%) [2, 9]: 113%; Long stability Remain (%) [2, 9]: 109%
3 | O=C(C=Cc1ccc(O)c(O)c1)OC1CC(O)(C(=O)O)CC(O)C1OC(=O)C=Cc1ccc(O)c(O)c1 (centres unmarked) [IAC, isochlorogenic acid C] | 47.3 ± 29.6 | 265 ± 95.5 | 33.6 ± 15 | 255 ± 370 | 5.79 ± 3.25 | 18.7 ± 18.6 | 21 ± 12.6 | 82.2 ± 49.8 | 8.8 ± 2.73 | 13.8 ± 4.86 | 187 ± 85.5 | 319.1 ± 217.3 | 823.4 ± 182.9 | 941.9 ± 204.7 | 97.6 | 93.7 | 106 | 106 | 102 | 98.6 | 24 h stability Remain (%) [2, 8]: 91.7%; 24 h stability Remain (%) [2, 9]: 105%; Long stability Remain (%) [2, 9]: 108%
4 | O=c1c(O[C@@H]2O[C@H](CO)[C@@H](O)[C@H](O)[C@H]2O)c(-c2ccc(O)c(O)c2)oc2cc(O)cc(O)c12 [Isoquercitrin, isoquercitrin] | 5.81 ± 5.72 | 10.2 ± 6.83 | 26.4 ± 15.6 | 52.8 ± 60.6 | 3.16 ± 3.46 | 7.56 ± 6.22 | 16.2 ± 6 | 71.4 ± 99 | 2.81 ± 1.79 | 9.94 ± 10.4 | 7.284 ± 5.643 | – | 16.15 ± 12.24 | 25.18 ± 13.92 | 113 | 110 | 92.3 | 104 | 92.0 | 111 | 24 h stability Remain (%) [2, 8]: 84.4%; 24 h stability Remain (%) [2, 9]: 113%; Long stability Remain (%) [2, 9]: 105%
5 | O=C(/C=C/c1ccc(O)c(O)c1)O[C@@H]1C[C@@](O)(C(=O)O)C[C@@H](O)[C@@H]1O [NCLA, neochlorogenic acid] | 74 ± 52 | 486 ± 273 | 41.4 ± 11.4 | 96.6 ± 66 | 4.35 ± 2.74 | 7.9 ± 7.34 | 21.6 ± 7.8 | 89.4 ± 32.4 | 6.33 ± 2.33 | 8.61 ± 2.66 | 210.2 ± 126.4 | 239.3 ± 125.3 | 965.7 ± 295.9 | 1028 ± 3007 | – | 87.0 | 114 | 111 | – | 82.9 | –
6 | C[C@@H]1O[C@@H](OC[C@H]2O[C@@H](Oc3c(-c4ccc(O)c(O)c4)oc4cc(O)cc(O)c4c3=O)[C@H](O)[C@@H](O)[C@@H]2O)[C@H](O)[C@H](O)[C@H]1O [Rutin, rutin] | 17.9 ± 17.6 | 76.7 ± 55.5 | – | 36.6 ± 27.6 | 1.95 ± 1.06 | 3.06 ± 1.3 | 19.2 ± 7.2 | – | 2.79 ± 0.24 | 6.02 ± 4.7 | 39.49 ± 59.42 | 42.77 ± 60.06 | 104.04 ± 53.04 | – | – | 116 | 89.6 | – | 97.0 | – | T max [1, 5]: 23.4 ± 9.6 min; t 1/2 [1, 6]: 49.2 ± 30.6 min

Reference: PMC8970883, “Simultaneous Determination of Seven Phenolic Acids, Two Flavonoids, and Tussilagone in Rat Plasma after Administration of Farfarae Flos Extract by LC–MS/MS” (Evidence-based Complementary and Alternative Medicine : eCAM, 2022)
